Legend:
[1] = molecular target: T1, Poly [ADP-ribose] polymerase 1 (Homo sapiens, UniProt P09874); conditions: 100 uM
Description: Inhibition of PARP1 (unknown origin) at 100 uM

[2] = molecular target: T1, Poly [ADP-ribose] polymerase 1; assay: Inhibition of PARP1 (unknown origin)

T1 sequence (P09874 whole entry): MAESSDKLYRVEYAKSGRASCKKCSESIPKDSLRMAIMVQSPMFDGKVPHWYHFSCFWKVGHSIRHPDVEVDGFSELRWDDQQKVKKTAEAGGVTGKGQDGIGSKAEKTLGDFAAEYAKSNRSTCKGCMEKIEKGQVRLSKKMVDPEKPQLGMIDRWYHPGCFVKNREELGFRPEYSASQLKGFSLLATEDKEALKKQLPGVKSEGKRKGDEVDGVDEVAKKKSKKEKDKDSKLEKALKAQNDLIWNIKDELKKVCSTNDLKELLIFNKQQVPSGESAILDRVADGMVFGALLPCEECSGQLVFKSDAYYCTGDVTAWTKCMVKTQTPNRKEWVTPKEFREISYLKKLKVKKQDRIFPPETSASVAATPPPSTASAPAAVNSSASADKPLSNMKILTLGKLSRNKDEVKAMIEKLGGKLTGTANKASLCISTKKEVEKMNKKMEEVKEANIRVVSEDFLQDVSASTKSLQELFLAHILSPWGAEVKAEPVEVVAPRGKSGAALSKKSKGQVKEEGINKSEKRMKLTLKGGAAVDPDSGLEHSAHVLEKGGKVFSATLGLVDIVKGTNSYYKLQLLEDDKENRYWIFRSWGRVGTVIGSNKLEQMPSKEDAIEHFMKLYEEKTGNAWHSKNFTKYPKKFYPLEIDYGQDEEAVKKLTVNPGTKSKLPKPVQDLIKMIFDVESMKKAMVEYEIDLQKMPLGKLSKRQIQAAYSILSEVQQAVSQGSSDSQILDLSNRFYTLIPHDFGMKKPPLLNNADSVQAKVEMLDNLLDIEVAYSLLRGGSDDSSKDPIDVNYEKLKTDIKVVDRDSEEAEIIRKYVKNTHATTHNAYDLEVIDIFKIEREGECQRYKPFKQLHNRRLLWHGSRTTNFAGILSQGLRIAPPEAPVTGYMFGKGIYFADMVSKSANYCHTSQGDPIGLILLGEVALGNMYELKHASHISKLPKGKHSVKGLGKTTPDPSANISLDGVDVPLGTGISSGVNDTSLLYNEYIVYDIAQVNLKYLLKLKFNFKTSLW

inhibition [1] [%] | IC50 [2] [nM] | Structure (SMILES)
100 | – | NC(=O)c1cccc(N)c1
– | 528 | CCCN1CCC(c2nc3c(C(N)=O)cncc3[nH]2)CC1
– | 636 | NC(=O)c1cncc2[nH]c(C3CCCNC3)nc12 (configuration not stated)
– | 1450 | CN1CCC(c2nc3c(C(N)=O)cncc3[nH]2)CC1

Continued, compound first:

Structure (SMILES) | inhibition [1] [%] | IC50 [2] [nM]
NC(=O)c1cncc2[nH]c(C3CCNCC3)nc12 | – | 825
CC(C)N1CCCC(c2nc3c(C(N)=O)cncc3[nH]2)C1 (configuration not stated) | – | 651
CCCN1CCCC(c2nc3c(C(N)=O)cncc3[nH]2)C1 (configuration not stated) | – | 938

Source: ChEMBL document CHEMBL2346520, “Design, synthesis and biological evaluation of novel imidazo[4,5-c]pyridinecarboxamide derivatives as PARP-1 inhibitors” (Bioorg Med Chem Lett, 2013)
